Measurements from ChEMBL document CHEMBL4699427, “A3- and A2B-fluorocorroles: synthesis, X-ray characterization and antiviral activity evaluation against human cytomegalovirus infection” (RSC Med Chem, 2020).
One block for each compound: values may come before it. Active and inactive are the calls of the source. The rule behind the calls is not given here.

Assays:
[1] = Selectivity index, ratio of CC50 for human MRC5 cells to IC50 for human Cytomegalovirus infected in human MRC5 cells incubated for 6 days; type: toxicity, cell-based; details: time 6 day, read-out: Ratio CC50/IC50
[2] = Cytotoxicity against human MRC5 cells assessed as reduction in cell viability incubated for 6 days by Hoechst 33342 staining based microscopic analysis; details: time 6 day
Human betaherpesvirus 5 [3] = experiment: Antiviral activity against human Cytomegalovirus infected in human ARPE-19 cells assessed as reduction in viral replication incubated for 13 days by Hoechst 33342 staining based microscopic analysis; type: functional, cell-based; details: Human betaherpesvirus 5, ARPE-19, 312 h
Human betaherpesvirus 5 [4] = experiment: Antiviral activity against human Cytomegalovirus infected in human MRC5 cells assessed as reduction in viral replication incubated for 6 days by Hoechst 33342 staining based microscopic analysis; type: functional, cell-based; details: Human betaherpesvirus 5, MRC5, 144 h
Human betaherpesvirus 5 [5] = experiment: Antiviral activity against human Cytomegalovirus infected in human ARPE-19 cells assessed as reduction in viral replication incubated for 12 days by Hoechst 33342 staining based microscopic analysis; type: functional, cell-based; details: Human betaherpesvirus 5, ARPE-19, 288 h
[6] = Selectivity index, ratio of CC50 for human MRC5 cells to IC50 for human Cytomegalovirus infected in human ARPE-19 cells incubated for 13 days; type: toxicity, cell-based; details: time 6 day, read-out: Ratio CC50/IC50
Human betaherpesvirus 5 [7] = experiment: Antiviral activity against human Cytomegalovirus infected in human ARPE-19 cells assessed as reduction in infection rate incubated for 12 days by Hoechst 33342 staining based microscopic analysis; type: functional, cell-based; details: Human betaherpesvirus 5, ARPE-19, 288 h
[8] = Selectivity index, ratio of CC50 for human MRC5 cells to IC50 for human Cytomegalovirus infected in human ARPE-19 cells incubated for 12 days; type: toxicity, cell-based; details: time 6 day, read-out: Ratio CC50/IC50
[9] = Cytotoxicity against human ARPE-19 cells assessed as assessed as number of fluorescent nuclei incubated for 6 days by Hoechst 33342 staining based microscopic analysis; type: cell-based; details: time 6 day
[10] = Cytotoxicity against human MRC5 cells assessed as assessed as number of fluorescent nuclei incubated for 6 days by Hoechst 33342 staining based microscopic analysis; type: cell-based; details: time 6 day
Human betaherpesvirus 5 [11] = experiment: Antiviral activity against Human Cytomegalovirus infected in human MRC5 cells assessed as reduction in infection rate incubated for 6 days by Hoechst 33342 staining based microscopic analysis; type: functional, cell-based; details: Human betaherpesvirus 5, MRC5, 144 h; read-out: IC50
Human betaherpesvirus 5 [12] = experiment: Antiviral activity against ganciclovir resistant Cytomegalovirus UL54 D301N infected in human MRC5 cells assessed as reduction in infection rate incubated for 6 days by Hoechst 33342 staining based microscopic analysis; type: functional, cell-based; details: time 6.0 day
[13] = Drug uptake in rabbit RK13 cells incubated for 24 hrs by Hoechst staining based microscopic analysis; type: ADME, cell-based, Oryctolagus cuniculus; details: rk13, 24 h
[14] = Selectivity index, ratio of CC50 for human MRC5 cells to IC50 for human Cytomegalovirus infected in human ARPE-19 cells incubated for 10 days; type: toxicity, cell-based; details: time 6 day, read-out: Ratio CC50/IC50
Human betaherpesvirus 5 [15] = experiment: Antiviral activity against human Cytomegalovirus infected in human ARPE-19 cells assessed as reduction in infection rate incubated for 10 days by Hoechst 33342 staining based microscopic analysis; type: functional, cell-based; details: Human betaherpesvirus 5, ARPE-19, 240 h; read-out: IC50
Human betaherpesvirus 5 [16] = experiment: Antiviral activity against letermovir resistant Cytomegalovirus UL56 R369G infected in human MRC5 cells assessed as reduction in infection rate at 600 nM incubated for 6 days by Hoechst 33342 staining based microscopic analysis; type: functional, cell-based; details: time 6.0 day
Human betaherpesvirus 5 [17] = experiment: Antiviral activity against ganciclovir resistant Cytomegalovirus UL54 D301N infected in human MRC5 cells assessed as reduction in viral DNA replication incubated for 6 days by Hoechst 33342 staining based microscopic analysis; type: functional, cell-based; details: time 6.0 day
[18] = Drug metabolism in human ARPE-19 cell culture at 10 uM incubated for 10 days; type: ADME; details: arpe-19, 240 h, time 10 day
Human betaherpesvirus 5 [19] = experiment: Antiviral activity against human Cytomegalovirus UL56 infected in human MRC5 cells assessed as reduction in infection rate incubated for 6 days by Hoechst 33342 staining based microscopic analysis; type: functional, cell-based; details: Human betaherpesvirus 5, UL56, MRC5, 144 h
Human betaherpesvirus 5 [20] = experiment: Antiviral activity against human Cytomegalovirus infected in human MRC5 cells assessed as reduction in viral infection rate at 0.75 uM incubated for 6 days by Hoechst 33342 staining based microscopic analysis; type: functional, cell-based; details: time 6.0 day
Human betaherpesvirus 5 [21] = experiment: Induction of viral absorption in human Cytomegalovirus harboring ANCHOR infected in human MRC-5 cells at 0.187 to 3 uM incubated for 18 hrs post infection by Hoechst 33342 staining based microscopic analysis; type: functional, organism-based; details: MRC5, dose microM 0.187-3, time 18.0 hrs
Human betaherpesvirus 5 [22] = experiment: Virucidal activity against human Cytomegalovirus infected in MRC-5 cells at 0.187 to 3 uM preincubated for 1 hr with virus followed by cell line addition and measured after 24 hrs by Hoechst 33342 staining based microscopic analysis; type: functional; details: MRC5, dose microM 0.187-3, time 25.0 hrs
Human betaherpesvirus 5 [23] = experiment: Antiviral activity against human Cytomegalovirus infected in human ARPE-19 cells assessed as reduction in viral DNA replication at 0.187-3 uM incubated for 18 hrs by Hoechst 33342 staining based microscopic analysis; type: functional, cell-based; details: dose microM 0.187-3, time 18.0 hrs
Human betaherpesvirus 5 [24] = experiment: Induction of viral absorption in human Cytomegalovirus harboring ANCHOR infected in human ARPE-19 cells at 0.187 to 3 uM incubated for 18 hrs post infection by Hoechst 33342 staining based microscopic analysis; type: functional, organism-based; details: dose microM 0.187-3, time 18.0 hrs
Human betaherpesvirus 5 [25] = experiment: Induction of viral entry in human Cytomegalovirus harboring ANCHOR infected in human ARPE-19 cells at 0.187 to 3 uM incubated for 18 hrs by Hoechst 33342 staining based microscopic analysis; type: functional, organism-based; details: dose microM 0.187-3, time 18.0 hrs
RK13 = experiment: Effect on gB expression in human Cytomegalovirus harboring ANCHOR infected in rabbit RK13 cells assessed as reduction in replication at late phase by at 5 uM by immunofluorescence assay; type: functional, cell-based; details: Human betaherpesvirus 5
Human betaherpesvirus 5 [26] = experiment: Virucidal activity against human Cytomegalovirus infected in APRE-19 cells at 0.187 to 3 uM preincubated for 1 hr with virus followed by cell line addition and measured after 24 hrs by Hoechst 33342 staining based microscopic analysis; type: functional; details: ARPE-19, dose microM 0.187-3, time 25.0 hrs
Human betaherpesvirus 5 [27] = experiment: Antiviral activity against human Cytomegalovirus infected in human ARPE-19 cells assessed as reduction in virus-induced cytopathic effect at 0.75 uM incubated for 10 days by Hoechst 33342 staining based microscopic analysis; type: functional, cell-based; details: time 10.0 day
Human betaherpesvirus 5 [28] = experiment: Antiviral activity against human Cytomegalovirus harboring ANCHOR assessed as reduction in infection rate incubated for 1 hr followed by cell line addition and measured after 24 hrs by Hoechst 33342 staining based microscopic analysis; type: functional; details: ARPE-19, dose microM 0.187-3, time 25.0 hrs
Human betaherpesvirus 5 [29] = experiment: Antiviral activity against human Cytomegalovirus infected in human MRC5 cells assessed as reduction in infection rate at 0.187 to 3 uM preincubated for 1 hr with cells by Hoechst 33342 staining based microscopic analysis; type: functional, cell-based; details: dose microM 0.187-3, time 1.0 hrs
Human betaherpesvirus 5 [30] = experiment: Antiviral activity against human Cytomegalovirus harboring ANCHOR infected in ARPE-19 cells assessed as reduction in viral DNA replication preincubated for 2 hrs with cells followed by infected with virus and measured after 24 hrs by Hoechst 33342 staining based microscopic analysis; type: functional, cell-based; details: dose microM 0.187-3, time 26.0 hrs
Human betaherpesvirus 5 [31] = experiment: Antiviral activity against human Cytomegalovirus harboring ANCHOR assessed as reduction in viral DNA replication incubated for 1 hr followed by cell line addition and measured after 24 hrs by Hoechst 33342 staining based microscopic analysis; type: functional; details: ARPE-19, dose microM 0.187-3, time 25.0 hrs
Human betaherpesvirus 5 [32] = experiment: Antiviral activity against human Cytomegalovirus infected in human MRC5 cells assessed as reduction in infection rate at 0.187 to 3 uM treated 24 hrs after infection measured after 6 days by Hoechst 33342 staining based microscopic analysis; type: functional, cell-based; details: dose microM 0.187-3, time 6.0 day
Human betaherpesvirus 5 [33] = experiment: Antiviral activity against human Cytomegalovirus infected in human MRC5 cells assessed as reduction in viral replication at 0.75 uM incubated for 6 days by Hoechst 33342 staining based microscopic analysis; type: functional, cell-based; details: time 6.0 day
Human betaherpesvirus 5 [34] = experiment: Antiviral activity against Human cytomegalovirus harboring ANCHOR infected in ARPE-19 cells assessed as reduction in viral infection at 0.75 uM measured after 6 days by microscopic analysis relative to control; type: functional, cell-based; details: time 6.0 day
Human betaherpesvirus 5 [35] = experiment: Antiviral activity against human Cytomegalovirus harboring ANCHOR infected in ARPE-19 cells assessed as reduction in infection rate preincubated for 2 hrs with cells followed by infected with virus and measured after 24 hrs by Hoechst 33342 staining based microscopic analysis; type: functional, cell-based; details: dose microM 0.187-3, time 26.0 hrs
Human betaherpesvirus 5 [36] = experiment: Induction of viral entry in human Cytomegalovirus harboring ANCHOR infected in human MRC-5 cells at 0.187 to 3 uM incubated for 18 hrs by Hoechst 33342 staining based microscopic analysis; type: functional, organism-based; details: MRC5, dose microM 0.187-3, time 18.0 hrs
Human betaherpesvirus 5 [37] = experiment: Antiviral activity against human Cytomegalovirus harboring ANCHOR infected in human ARPE-19 cells assessed as reduction in viral infection rate at 0.187 to 3 uM incubated for 18 hrs post infection by Hoechst 33342 staining based microscopic analysis; type: functional, cell-based; details: dose microM 0.187-3, time 18.0 hrs

IC50 (Human betaherpesvirus 5 [3]): 2300 nM
IC50 (Human betaherpesvirus 5 [5]): 2300 nM
Structure (SMILES): Fc1ccc(F)c(-c2c3nc(c4ccc([nH]4)c(-c4c(F)ccc(F)c4F)c4ccc([nH]4)c(-c4c(F)ccc(F)c4F)c4ccc2[nH]4)C=C3)c1F
selectivity ratio at 144 h [1]: > 28
CC50 at 144 h [2]: > 50000 nM
IC50 (Human betaherpesvirus 5 [4]): 1800 nM
selectivity ratio at 144 h [6]: > 21

IC50 (Human betaherpesvirus 5 [7]): 160 nM
Structure (SMILES): Fc1cc(F)c(F)c(-c2c3nc(c4ccc([nH]4)c(-c4c(F)c(F)cc(F)c4F)c4ccc([nH]4)c(-c4c(F)c(F)cc(F)c4F)c4ccc2[nH]4)C=C3)c1F
selectivity ratio at 144 h [8]: > 312
CC50 at 144 h [9]: 22500 nM
selectivity ratio at 144 h [1]: > 24
CC50 at 144 h [10]: 3400 nM
CC50 at 144 h [2]: 25300 nM
IC50 (Human betaherpesvirus 5 [11]): 1040 nM

Structure (SMILES): Fc1cc(F)c(F)c(-c2c3nc(c4ccc([nH]4)c(-c4c(F)c(F)cc(F)c4F)c4ccc([nH]4)c(-c4c(F)c(F)c(F)c(F)c4F)c4ccc2[nH]4)C=C3)c1F
Activity (Human betaherpesvirus 5 [12]): Active
selectivity ratio at 144 h [1]: 24.9
CC50 at 144 h [2]: 16200 nM
Drug uptake [13]: Active
selectivity ratio at 144 h [14]: 416
IC50 (Human betaherpesvirus 5 [15]): 20 nM
Activity (Human betaherpesvirus 5 [16]): Active
IC50 (Human betaherpesvirus 5 [11]): 650 nM
Activity (Human betaherpesvirus 5 [17]): Active
Drug metabolism [18]: Metabolite_Notdetected

Structure (SMILES): COc1cccc(N2CCN(C3=Nc4c(F)cccc4[C@H](CC(=O)O)N3c3cc(C(F)(F)F)ccc3OC)CC2)c1 [LETERMOVIR]
IC50 (Human betaherpesvirus 5 [19]): 4 nM

Structure (SMILES): Fc1c(F)c(F)c(-c2c3nc(c4ccc([nH]4)c(-c4c(F)c(F)c(F)c(F)c4F)c4ccc([nH]4)c(-c4c(F)c(F)c(F)c(F)c4F)c4ccc2[nH]4)C=C3)c(F)c1F
IC50 (Human betaherpesvirus 5 [7]): 960 nM
Activity (Human betaherpesvirus 5 [20]): Active
Activity (Human betaherpesvirus 5 [21]): Dose-dependent effect
Activity (Human betaherpesvirus 5 [22]): inactive
selectivity ratio at 144 h [8]: 27
Activity (Human betaherpesvirus 5 [23]): Active
selectivity ratio at 144 h [1]: 2.75
Activity (Human betaherpesvirus 5 [24]): Active
Activity (Human betaherpesvirus 5 [25]): Active
CC50 at 144 h [2]: 3270 nM
Activity (RK13): Active
Activity (Human betaherpesvirus 5 [26]): inactive
Activity (Human betaherpesvirus 5 [27]): Active
Activity (Human betaherpesvirus 5 [28]): Dose-dependent effect
Activity (Human betaherpesvirus 5 [29]): inactive
Activity (Human betaherpesvirus 5 [30]): inactive
Activity (Human betaherpesvirus 5 [31]): Dose-dependent effect
Activity (Human betaherpesvirus 5 [32]): Active
IC50 (Human betaherpesvirus 5 [11]): 1190 nM
Activity (Human betaherpesvirus 5 [33]): Active
Activity (Human betaherpesvirus 5 [34]): Active
Activity (Human betaherpesvirus 5 [35]): inactive
Activity (Human betaherpesvirus 5 [36]): Dose-dependent effect
Activity (Human betaherpesvirus 5 [37]): inactive
